Reference: patent publication US20050175597A1 (priority 2002, published 2005)

Key:
[1] = tested on: Lactobacillus casei shirota; assay: Lactobacillus casei shirota viable plate counts after SGF treatment with or without colostrum; settings: L. casei shirota, no colostrum
Lactobacillus plantarum [2] = tested on: Lactobacillus plantarum; parameters: species or system mice; settings: mouse, in vivo
Lactobacillus plantarum [3] = tested on: Lactobacillus plantarum

Compound: Lactobacillus casei shirota [Lactobacillus + H2O]
- reduction in Lactobacillus viability [1]: ≥ 10,000 fold

Compound: O=C([O-])O.[Na+] [sodium bicarbonate, Sodium bicarbonate]
- survival of Lactobacillus plantarum (large intestine, FIG. 7) (Lactobacillus plantarum [2]): increased
- survival of Lactobacillus plantarum at higher concentrations of protectant (Lactobacillus plantarum [2]): increased survival

Compound: Lactobacillus plantarum [Lactobacillus + H2O]
- reduction in Lactobacillus viability (Lactobacillus plantarum [3]): 1000 fold
